Assay results taken from ChEMBL document CHEMBL1949553, “Microbial transformation of deoxyandrographolide and their inhibitory activity on LPS-induced NO production in RAW 264.7 macrophages” (Bioorg Med Chem Lett, 2012).

Key:
RAW264.7 = assay: Antiinflammatory activity in mouse RAW264.7 cells assessed as inhibition of LPS-induced NO production after 24 hrs by Griess method; assay type: functional, cell-based; settings: RAW264.7, 24 h
[1] = Cytotoxicity against mouse RAW264.7 cells assessed as cell viability at 100 uM after 24 hrs by MTT assay; assay type: cell-based; settings: read-out: Activity

Structure (SMILES)	IC50 (RAW264.7)	viability at 24 h, 100 µM [1]
C=C1CC[C@@H]2[C@](C)(CO)[C@H](O)CC[C@@]2(C)[C@]1(O)CCC1=CCOC1=O	> 100 µM	86%
C=C1CC[C@@H]2[C@](C)(CO)C(=O)CC[C@@]2(C)[C@]1(O)CCC1=CCOC1=O	28.4 µM	87.5%
C[C@@]1(CO)[C@H](O)CC[C@@]2(C)C(CCC3=CCOC3=O)=C(CO)CC[C@H]12	> 100 µM	91.1%
C[C@@]12CCC(=O)[C@@](C)(CO)[C@H]1CCC(CO)=C2CCC1=CCOC1=O	79 µM	101%
C[C@@]1(CO)[C@H](O)CC[C@@]2(C)C(CCC3=CCOC3=O)=C(C=O)CC[C@H]12	> 100 µM	99.7%
C=C1[C@H](O)C[C@H]2[C@@](C)(CCC(=O)[C@@]2(C)CO)[C@@H]1CCC1=CCOC1=O	58.2 µM	102%
C[C@@]12CCC(=O)[C@@](C)(CO)[C@H]1CC=C(CO)[C@H]2CCC1=CCOC1=O	71.3 µM	104%
C[C@@]12CCC(=O)[C@@](C)(CO)[C@H]1CC[C@@]1(CO1)[C@H]2CCC1=CCOC1=O	89.2 µM	63.1%
C[C@]1(CO)[C@H]2CC[C@@]3(CO3)[C@@H](CCC3=CCOC3=O)[C@]2(C)CC[C@H]1O	> 100 µM	88.4%
CO[C@]1(CO)CC[C@@H]2[C@](C)(CO)[C@H](O)CC[C@@]2(C)[C@@H]1CCC1=CCOC1=O	> 100 µM	100%
C=C1CC[C@@H]2[C@](C)(CO)[C@H](O)C[C@@H](O)[C@@]2(C)[C@@H]1CCC1=CCOC1=O	> 100 µM	101%
C=C1CC[C@H]2[C@@](C)(C=CC(=O)[C@@]2(C)CO)[C@@H]1CCC1=CCOC1=O	10 µM	100%
C=C1CC[C@H]2[C@@](C)([C@H](O)CC(=O)[C@@]2(C)CO)[C@@H]1CCC1=CCOC1=O	61.9 µM	100%
C=C1CC[C@H]2[C@@](C)(C[C@H](O)C(=O)[C@@]2(C)CO)[C@@H]1CCC1=CCOC1=O	12.2 µM	103%
C=C1CC[C@@H]2[C@](C)(CO)[C@H](O)CC[C@@]2(C)[C@]1(O)/C=C/C1=CCOC1=O	97.2 µM	98.6%
C[C@]1(CO)[C@H]2CC=C(CO)[C@@H](/C=C/C3=CCOC3=O)[C@]2(C)CC[C@H]1O	39.1 µM	106%
C=C1CC[C@@H]2[C@](C)(CO)[C@H](O)CC[C@@]2(C)[C@@H]1C/C=C1/C(=O)OC[C@@H]1O	26.5 µM	65.2%
C=C1CC[C@@H]2[C@](C)(CO)[C@H](O)CC[C@@]2(C)[C@@H]1C/C=C(/C(=O)O)[C@@H](O)CO	> 100 µM	104%
C=C1CC[C@@H]2[C@](C)(COC3O[C@H](CO)[C@@H](O)[C@H](O)[C@H]3O)CCC[C@@]2(C)[C@@H]1CCC1=CCOC1=O (some centres not stated)	> 100 µM	81.4%
C=C1CC[C@H]2[C@@](C)(CCC(=O)[C@@]2(C)CO)[C@@H]1/C=C/C1=CCOC1=O	75.3 µM	104%
C=C1CC[C@H]2[C@@](C)(CCC(=O)[C@@]2(C)CO)[C@@H]1CCC1=CCOC1=O	10.1 µM	110%
C=C1[C@@H](CCC2=CCOC2=O)[C@]2(C)CC[C@@H](O)[C@@](C)(CO)[C@H]2C[C@@H]1O	> 100 µM	89.1%
C=C1CC[C@@H]2[C@](C)(CO)CCC[C@@]2(C)[C@@H]1CCC1=CCOC1=O [ANDROGRAPANIN]	11.6 µM	99.8%
C=C1CC[C@@H]2[C@](C)(CO)[C@H](O)CC[C@@]2(C)[C@@H]1C/C=C1/C(=O)OC[C@H]1O [ANDROGRAPHOLIDE]	6.96 µM	49.6%
C=C1CC[C@@H]2[C@](C)(CO)[C@H](O)CC[C@@]2(C)[C@@H]1CCC1=CCOC1=O [DEOXYANDROGRAPHOLIDE]	21 µM	100%
CN(C)c1ccc(O)c2c1C[C@H]1C[C@H]3[C@H](N(C)C)C(O)=C(C(N)=O)C(=O)[C@@]3(O)C(O)=C1C2=O [MINOCYCLINE]	34.9 µM	100%
